Experimental data taken from ChEMBL document CHEMBL4004803, “Syntheses and antibacterial activity of soluble 9-bromo substituted indolizinoquinoline-5,12-dione derivatives” (Eur J Med Chem, 2017).

Tests used:
Type in all cases: functional
Staphylococcus aureus [1] = experiment: Antibacterial activity against methicillin-resistant Staphylococcus aureus 110910-2 clinical isolate after 20 to 24 hrs by two-fold microdilution method
Staphylococcus aureus [2] = experiment: Antibacterial activity against methicillin-resistant Staphylococcus aureus 110325 clinical isolate after 20 to 24 hrs by two-fold microdilution method
Staphylococcus aureus [3] = experiment: Antibacterial activity against methicillin-resistant Staphylococcus aureus 1212221 clinical isolate after 20 to 24 hrs by two-fold microdilution method
Staphylococcus aureus [4] = experiment: Antibacterial activity against methicillin-resistant Staphylococcus aureus 20339 clinical isolate after 20 to 24 hrs by two-fold microdilution method
Staphylococcus aureus [5] = experiment: Antibacterial activity against methicillin-resistant Staphylococcus aureus ATCC 43300 after 20 to 24 hrs by two-fold microdilution method
Staphylococcus aureus [6] = experiment: Antibacterial activity against methicillin-resistant Staphylococcus aureus 724244 clinical isolate after 20 to 24 hrs by two-fold microdilution method
Staphylococcus aureus [7] = experiment: Antibacterial activity against methicillin-resistant Staphylococcus aureus 112047 clinical isolate after 20 to 24 hrs by two-fold microdilution method
Staphylococcus aureus [8] = experiment: Antibacterial activity against methicillin-resistant Staphylococcus aureus 1025022 clinical isolate after 20 to 24 hrs by two-fold microdilution method
Staphylococcus aureus [9] = experiment: Antibacterial activity against methicillin-resistant Staphylococcus aureus 125025 clinical isolate after 20 to 24 hrs by two-fold microdilution method
Staphylococcus aureus [10] = experiment: Antibacterial activity against methicillin-resistant Staphylococcus aureus 130031 clinical isolate after 20 to 24 hrs by two-fold microdilution method
Staphylococcus aureus [11] = experiment: Antibacterial activity against methicillin-resistant Staphylococcus aureus 1024004-2 clinical isolate after 20 to 24 hrs by two-fold microdilution method
Staphylococcus aureus [12] = experiment: Antibacterial activity against methicillin-resistant Staphylococcus aureus 1211026 clinical isolate after 20 to 24 hrs by two-fold microdilution method
Staphylococcus aureus [13] = experiment: Antibacterial activity against methicillin-resistant Staphylococcus aureus 20106-2 clinical isolate after 20 to 24 hrs by two-fold microdilution method
Enterococcus faecalis = experiment: Antibacterial activity against Enterococcus faecalis ATCC 29212 after 20 to 24 hrs by two-fold microdilution method
Escherichia coli = experiment: Antibacterial activity against Escherichia coli ATCC 25922 after 20 to 24 hrs by two-fold microdilution method
Staphylococcus aureus [14] = experiment: Antibacterial activity against methicillin-resistant Staphylococcus aureus 10281-2 clinical isolate after 20 to 24 hrs by two-fold microdilution method
Staphylococcus aureus [15] = experiment: Antibacterial activity against methicillin-resistant Staphylococcus aureus 523005 clinical isolate after 20 to 24 hrs by two-fold microdilution method
Staphylococcus aureus [16] = experiment: Antibacterial activity against methicillin-resistant Staphylococcus aureus 112106 clinical isolate after 20 to 24 hrs by two-fold microdilution method
Staphylococcus aureus [17] = experiment: Antibacterial activity against methicillin-resistant Staphylococcus aureus 1101016 clinical isolate after 20 to 24 hrs by two-fold microdilution method
Staphylococcus aureus [18] = experiment: Antibacterial activity against methicillin-resistant Staphylococcus aureus 502025 clinical isolate after 20 to 24 hrs by two-fold microdilution method
Staphylococcus aureus [19] = experiment: Antibacterial activity against methicillin-resistant Staphylococcus aureus 305026 clinical isolate after 20 to 24 hrs by two-fold microdilution method
Staphylococcus aureus [20] = experiment: Antibacterial activity against methicillin-resistant Staphylococcus aureus 1212057-1 clinical isolate after 20 to 24 hrs by two-fold microdilution method
Staphylococcus aureus [21] = experiment: Antibacterial activity against methicillin-resistant Staphylococcus aureus 1108204 clinical isolate after 20 to 24 hrs by two-fold microdilution method
Staphylococcus aureus [22] = experiment: Antibacterial activity against methicillin-resistant Staphylococcus aureus 11819 clinical isolate after 20 to 24 hrs by two-fold microdilution method
[23] = test system: Staphylococcus epidermidis; experiment: Antibacterial activity against Staphylococcus epidermidis ATCC 12228 after 20 to 24 hrs by two-fold microdilution method
Staphylococcus aureus [24] = experiment: Antibacterial activity against methicillin-resistant Staphylococcus aureus 212014 clinical isolate after 20 to 24 hrs by two-fold microdilution method
[25] = test system: Staphylococcus haemolyticus; experiment: Antibacterial activity against Staphylococcus haemolyticus CICC 10373 after 20 to 24 hrs by two-fold microdilution method
Staphylococcus aureus [26] = experiment: Antibacterial activity against methicillin-resistant Staphylococcus aureus 1107027 clinical isolate after 20 to 24 hrs by two-fold microdilution method
Streptococcus pneumoniae = experiment: Antibacterial activity against Streptococcus pneumoniae ATCC 6305 after 20 to 24 hrs by two-fold microdilution method
Staphylococcus aureus [27] = experiment: Antibacterial activity against methicillin-resistant Staphylococcus aureus 1103006 clinical isolate after 20 to 24 hrs by two-fold microdilution method
Staphylococcus aureus [28] = experiment: Antibacterial activity against methicillin-resistant Staphylococcus aureus 123152 clinical isolate after 20 to 24 hrs by two-fold microdilution method
Staphylococcus aureus [29] = experiment: Antibacterial activity against methicillin-resistant Staphylococcus aureus 519238 clinical isolate after 20 to 24 hrs by two-fold microdilution method
Staphylococcus aureus [30] = experiment: Antibacterial activity against methicillin-resistant Staphylococcus aureus 531026 clinical isolate after 20 to 24 hrs by two-fold microdilution method
Staphylococcus aureus [31] = experiment: Antibacterial activity against methicillin-resistant Staphylococcus aureus 19950 clinical isolate after 20 to 24 hrs by two-fold microdilution method
Staphylococcus aureus [32] = experiment: Antibacterial activity against methicillin-resistant Staphylococcus aureus 921026 clinical isolate after 20 to 24 hrs by two-fold microdilution method
Staphylococcus aureus [33] = experiment: Antibacterial activity against methicillin-resistant Staphylococcus aureus 1215028 clinical isolate after 20 to 24 hrs by two-fold microdilution method
Staphylococcus aureus [34] = experiment: Antibacterial activity against methicillin-resistant Staphylococcus aureus 121026 clinical isolate after 20 to 24 hrs by two-fold microdilution method
Staphylococcus aureus [35] = experiment: Antibacterial activity against methicillin-resistant Staphylococcus aureus 103054 clinical isolate after 20 to 24 hrs by two-fold microdilution method
Staphylococcus aureus [36] = experiment: Antibacterial activity against methicillin-resistant Staphylococcus aureus 1106003 clinical isolate after 20 to 24 hrs by two-fold microdilution method
Staphylococcus aureus [37] = experiment: Antibacterial activity against methicillin-resistant Staphylococcus aureus 503025 clinical isolate after 20 to 24 hrs by two-fold microdilution method
Staphylococcus aureus [38] = experiment: Antibacterial activity against methicillin-resistant Staphylococcus aureus 625032 clinical isolate after 20 to 24 hrs by two-fold microdilution method
Staphylococcus aureus [39] = experiment: Antibacterial activity against methicillin-resistant Staphylococcus aureus 118038 clinical isolate after 20 to 24 hrs by two-fold microdilution method
Staphylococcus aureus [40] = experiment: Antibacterial activity against methicillin-resistant Staphylococcus aureus 122820-2 clinical isolate after 20 to 24 hrs by two-fold microdilution method
Staphylococcus aureus [41] = experiment: Antibacterial activity against methicillin-resistant Staphylococcus aureus 912014 clinical isolate after 20 to 24 hrs by two-fold microdilution method
Staphylococcus aureus [42] = experiment: Antibacterial activity against methicillin-resistant Staphylococcus aureus 110432 clinical isolate after 20 to 24 hrs by two-fold microdilution method
Staphylococcus aureus [43] = experiment: Antibacterial activity against methicillin-resistant Staphylococcus aureus 219236 clinical isolate after 20 to 24 hrs by two-fold microdilution method
Staphylococcus aureus [44] = experiment: Antibacterial activity against methicillin-resistant Staphylococcus aureus 109244 clinical isolate after 20 to 24 hrs by two-fold microdilution method

Measured: MIC

O=C1c2cccnc2C(=O)c2c1c(C(=O)OCCCCCCN1CCOCC1)c1ccc(Br)cn21
0.063 µg/mL: Enterococcus faecalis
8 µg/mL: Escherichia coli
0.5 µg/mL: Streptococcus pneumoniae
> 16 µg/mL: Staphylococcus aureus [27] | Staphylococcus aureus [36]
0.031 µg/mL: [25]
≤ 0.0078 µg/mL: all other assays above

O=C1c2cccnc2C(=O)c2c1c(C(=O)OCCCCCN1CCOCC1)c1ccc(Br)cn21
0.063 µg/mL: Staphylococcus aureus [4] | Staphylococcus aureus [10] | Staphylococcus aureus [19] | Staphylococcus aureus [24] | Staphylococcus aureus [38] | Staphylococcus aureus [41]
2 µg/mL: Streptococcus pneumoniae
16 µg/mL: Staphylococcus aureus [27] | Staphylococcus aureus [36]
1 µg/mL: [25]
0.25 µg/mL: Enterococcus faecalis | Staphylococcus aureus [21]
0.031 µg/mL: Staphylococcus aureus [3] | Staphylococcus aureus [5] | Staphylococcus aureus [7] | Staphylococcus aureus [8] | Staphylococcus aureus [15] | Staphylococcus aureus [16] | Staphylococcus aureus [17] | Staphylococcus aureus [28] | Staphylococcus aureus [31] | Staphylococcus aureus [37] | Staphylococcus aureus [40] | Staphylococcus aureus [43] | Staphylococcus aureus [44]
8 µg/mL: Escherichia coli
0.125 µg/mL: Staphylococcus aureus [11] | Staphylococcus aureus [13] | Staphylococcus aureus [18] | Staphylococcus aureus [29]
≤ 0.0078 µg/mL: all other assays above
